Measurements reported in publication PMC6007898, “Methyl dihydrojasmonate and lilial are the constituents with an "off-label" insect repellence in perfumes” (PLoS ONE, 2018).

Biological target: T1, CquiOR136/CquiOrco (Culex quinquefasciatus, UniProt A0A0A0QKD4)
T1 construct: odorant receptor co-expressed with its co-receptor Orco in Xenopus oocytes; with Odorant receptor coreceptor
T1 sequence (A0A0A0QKD4 1-436): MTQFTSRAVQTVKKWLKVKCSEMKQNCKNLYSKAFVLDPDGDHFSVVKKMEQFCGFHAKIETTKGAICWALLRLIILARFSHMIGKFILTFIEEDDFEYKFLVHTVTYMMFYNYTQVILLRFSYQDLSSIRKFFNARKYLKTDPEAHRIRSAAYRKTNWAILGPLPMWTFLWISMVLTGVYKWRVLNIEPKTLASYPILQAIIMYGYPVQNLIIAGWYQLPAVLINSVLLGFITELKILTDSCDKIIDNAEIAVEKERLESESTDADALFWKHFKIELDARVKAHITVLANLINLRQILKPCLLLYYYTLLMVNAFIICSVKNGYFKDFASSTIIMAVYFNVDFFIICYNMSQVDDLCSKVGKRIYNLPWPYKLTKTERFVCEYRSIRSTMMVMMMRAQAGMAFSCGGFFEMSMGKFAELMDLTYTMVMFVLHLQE
Assay: two-electrode voltage clamp, Xenopus oocytes
Format: cell-based
Details: holding potential -80 mV, CquiOrco co-expressed, agonist
Method: All compounds were tested at the same dose

Row | SMILES | current at 1 mM
1 | CC(C=O)Cc1ccc(C(C)(C)C)cc1 (centres unmarked) [lilial] | both compounds were somewhat strong repellents, they activated CquiOR136 differently
2 | CCCCCC1C(=O)CCC1CC(=O)OC (mixture of isomers) [MDJ, methyl 2-(3-oxo-2-pentylcyclopentyl)acetate] | The currents elicited by methyl dihydrojasmonate were significantly higher than those elicited by lilial
